For assay [1], the system named is FGFR3-S249C-expressing NIH-3T3 cells (clone S249C1.2). As to the kind of experiment: Morphology analysis of FGFR3-S249C-expressing NIH-3T3 cells. The following applies: 30 μM, 48 h; FIG. 1C. It counts as cell-based. The procedure: (§1) NIH-3T3 cells were cultured 48 h in presence of different inhibitors, SB203580 and SU5402 (Calbiochem, Merck Eurolab, Fontenay Sous Bois, France), and pictures were taken using a phase-contrast microscope.

For a further assay, the system named is NIH-3T3 control cells. Nature of the assay: Morphology analysis of NIH-3T3 control cells. Type of assay: cell-based. The conditions noted are these: data not shown. The procedure: as §1
Assay [2] concerns FGFR3-S249C-expressing cells (S249C1.2). As to the kind of experiment: Soft agar assay of FGFR3-S249C-expressing NIH-3T3 cells. The conditions noted are these: 21 days, colonies greater than 50 μm; FIG. 1D. It counts as cell-based. The procedure: (§2) For NIH-3T3, 30,000 transfected cells were added, in triplicate, to each well of a 12-well plate containing DMEM supplemented with 10% NCS and solidified with agar. For MGH-U3, 20,000 non-transfected or siRNA-transfected cells were added, to triplicate wells of 12-well plates containing MEM supplemented with 10% FCS and agar. When necessary, both cell types were cultured in the presence or absence of different inhibitors in agar and in culture medium. The same amount of inhibitor was added to the culture medium weekly.
(§3) The plates were incubated for 21 or 14 days for NIH-3T3 and MGH-U3 cells respectively, and colonies with diameters greater than 50 μm were then scored as positive, using a phase-contrast microscope equipped with a measuring grid.

For another assay, the system named is MGH-U3 cells. As to the kind of experiment: Soft agar assay, anchorage-independent growth of MGH-U3 cells. It counts as cell-based, human. The following applies: 14 days; FIG. 2C. The procedure: as §2, §3
A further assay concerns MGH-U3 xenograft. Nature of the assay: MGH-U3 xenograft growth in athymic nude mice. Type of assay: in vivo. The conditions noted are these: intratumoral, daily, 100 μl of 20 μM, up to 25 days; FIG. 2D. The procedure: Ten six-week-old female Swiss nu/nu mice were raised in the animal facilities of the Curie Institute in specified pathogen-free conditions. Their care and housing were in accordance with the institutional guidelines of the French National Ethics Committee (Ministere de l'Agriculture et de la Forêt, Direction de la Santë et de la Protection Animate, Paris, France) and were supervised by authorised investigators. Each mouse was injected subcutaneously in each flank (dorsal region) with 4×10^6 cells/site. When tumours reached 50 mm^3 (+/−10), mice were randomly separated into two group of 5 mice. 100 μl of 20 μM SB203580 or equal volume of PBS were administrated daily in tumours. Tumour formation was monitored for up to 25 days and the size of tumours was measured with Vernier calipers: two perpendicular diameters were used to estimate tumour volumes by the formule ab^2/2, where a is the largest and b the smallest diameter.

Assay [3] relates to transgenic mice tumor cell proliferation. As to the kind of experiment: BrdU labelling, snout tumour cell proliferation in K5-FGFR3-S249C transgenic mice. It counts as in vivo. The conditions noted are these: 100 μM SB203580 on snout daily during 2 weeks; FIG. 3D. The procedure: (§4) Transgenic mice (K5-FGFR3-S249C) expressing mutated receptor FGFR3b— S249C in basal cells of the epidermis were established previously (Logi& et al 2005, Hum. Mol. Genet. 14, 1153-1160). 40 μl of 100 μM SU5402 or of 100 μM SB203580 or of vehicule (acetone) were applied daily during 2 weeks on snout of 3 to 4 months old transgenic mice who had developed epidermal tumours on snout or of control littermates mice. Two hours prior sacrifice mice were injected (i.p), with 0.25 mg/g body weight Brdu (Sigma, Saint-Quentin Falavier, France). Brdu immunohistochemistry was performed on parafine embed snout tissue with BrdU in situ detection kit (BD Pharmingen, San Diego, Calif., USA) according to the manufacturer's instructions. The number of BrdU-labeled cells among 500 cells from basal epidermis layer was determined for each mouse. Total snout cells lysate (75 μg) were analyzed as described above using antibodies against p38 and phospho-p38 (Pp38).
(In general: Dividing cells build labelled thymidine or BrdU into new DNA.)

For assay [4], the system named is control mice basal epidermal cells. As to the kind of experiment: BrdU labelling, basal epidermal cell proliferation in control littermate mice. It counts as in vivo. The following applies: 100 μM SB203580 on snout daily during 2 weeks, FIG. 3D. The procedure: as §4
For assay [5], the system named is NIH-3T3 cell line transfected by mutated FGFR3-S249C. The conditions noted are these: AACR abstract April 2005; cited from earlier work.
For assay [6] the test system is unchanged. The following applies: AACR abstract April 2005; cited from earlier work. The source holds these as a separate data set.
Assay [7] has as its system p38 phosphorylation in FGFR3-S249C expressing NIH-3T3 clones. As to the kind of experiment: Immunoblot of p38 phosphorylation in FGFR3-S249C expressing NIH-3T3 clones. Type of assay: cell-based. The following applies: 30 μM SU5402, 24 hours; clones S249C1.1 and S249C1.2; FIG. 1B. The procedure:
(§5) Transfected NIH-3T3 cells were washed once with PBS and serum-starved for 24 h. Where required, cells were stimulated for 5 min with 20 ng/ml FGF1 in the presence of 50 μg/ml heparin at 37° C. They were then lysed in lysis buffer (50 mM Tris-HCl (pH 7.4), 150 mM NaCl, 1% NP-40, 0.25% sodium deoxycholate, 1 mM EDTA, 1 mM Na3VO4, 5 mM NaF, 1 μ/ml aprotinin, 1 μg/ml leupeptin and 1 μg/ml pepstatin) and the lysates were clarified by centrifugation. The protein concentrations of the supernatants were determined with the Biorad Bradford Protein Assay Kit (BioRad, Ivry sur Seine, France). Proteins from total cell lysates (75 μg protein) were resolved by SDS-PAGE on 10% polyacrylamide gels, electrotransferred to Immobilon-P membrane in 25 mM Tris, pH 8.3, 200 mM glycine, 10% ethanol and analyzed using antibodies against p38 (#9212), Aid (#9272), p42/p44 (#9102) and the phosphorylated forms of these proteins (phospho AKT (Thr308) #9275; phospho p42/p44 (thr202/tyr204) # 9101; phospho p38 (thr180/tyr182) (cell signaling Technology, Ozyme, Montigny le Bretonneux, France)
(Immunoblotting shows a protein as a band on a membrane.)

Assay [8] concerns p38 phosphorylation in MGH-U3 cells. As to the kind of experiment: Immunoblot of p38 phosphorylation in MGH-U3 cells. Type of assay: cell-based, human. The conditions noted are these: 30 μM SU5402, 24 hours; FIG. 2A. The procedure: as §5
MGH-U3 total cell lysates (75 μg) were analyzed similarly using antibodies against p38, phospho-p38 and Akt.

Assay [9] deals with p38 phosphorylation in transgenic mice snout. As to the kind of experiment: Immunoblot of p38 phosphorylation in snout of K5-FGFR3-S249C transgenic mice. Type of assay: in vivo. The following applies: 100 μM SU5402 on snout daily during 2 weeks; FIG. 3C. The procedure:
as §4

As for `C[S+]([O-])c1ccc(-c2nc(-c3ccncc3)c(-c3ccc(F)cc3)[nH]2)cc1` (stereo not drawn) [SB203580], the “transformed phenotype (morphology)” value in assay [1] is “reverted”. Moreover, the “effect on the control cell phenotype” value in the assay on NIH-3T3 control cells is “no effect”. Besides, in assay [2], the “ability to form colonies in a soft agar assay” value is given as “inhibited”. In addition, the “colonies on soft agar relative to control cells” value in the assay on MGH-U3 cells is on record as “one third”. In addition, in the assay with MGH-U3 xenograft, the MGH-U3 xenograft growth entry is given as “significantly reduced”. In assay [3], the “tumor cell proliferation (BrdU labelling)” value is given as “significant decreased”. Moreover, the “basal epidermal cells proliferation (BrdU labelling)” value in [4] is reported as “no effect”. The “transformed phenotype of the cells” value in [5] is reported as “inhibits”. The “abilities to form colonies in soft agar” value in [6] is listed as “inhibits”.

Consider `Cc1c[nH]c(/C=C2\C(=O)Nc3ccccc32)c1CCC(=O)O` [SU5402], for which the p38 phosphorylation entry is “inhibited” in [7], “suppressed” in assay [8] and “decreased” in assay [9]. In assay [1], the “transformed phenotype (morphology)” value is “reverted”. For the same molecule, in the assay with NIH-3T3 control cells, the “effect on the control cell phenotype” value is “no effect”. Besides, in assay [2], the “ability to form colonies in a soft agar assay” value is on record as “inhibited”.

Source of the values: patent US20100166737A1, “P38Alpha as a Therapeutic Target in Bladder Carcinoma” (INSTITUT CURIE, priority 2007, published 2010).
